Test results taken from patent US8563067B2, “Extended shelf life and bulk transport of perishable organic liquids with low pressure carbon dioxide” (Cornell Research Foundation, Inc., priority 2004, dated 2013).
Like-named read-outs stand apart in the source and are kept apart here.

Experiments:
thermoduric bacteria = test: Thermoduric bacteria (laboratory pasteurization count) in raw milk under CO2 pressure (Example 1); type: cell-based; conditions: 4° C.
Procedure: (§1) Milk samples were mixed and 5 ml of milk added into the treatment and control vessels. The treatment vessel was connected to the apparatus and the control vessel closed off. Both vessels were placed in the water bath. When the desired temperatures were attained in both treatment and control vessels, CO2 was introduced through the bottom of the treatment vessel until the set pressure was reached. The CO2 pressure was maintained throughout the test period. When the desired time was reached, the CO2 inlet was turned off, the pressure release valve on the outlet line opened, and the pressure released in under one minute. After depressurization, the treatment and control vessels were removed from the water bath and their external surfaces were wiped dry, sanitized with 95% ethanol, detached from the apparatus and transferred into sterile containers for dilution and plating.
(§2) The progression of these counts (total, Coliform/E. coli and thermoduric bacteria) in the treatment and control samples was tracked by conducting checks on the total aerobic counts (SPC) on treatment days 4 and 6. Based on the levels of total counts on days 4 and 6, analyses of total coli forms/E. coli and thermoduric bacteria after day 6 were conducted either in 1-day or 2-day intervals. The control sample final count was measured on days 4 and 6.
(§3) Initial total, coliform, and thermoduric counts were each determined for control and treated samples. Thermoduric organisms were enumerated by the laboratory pasteurization count (LPC) method described in the Standard Methods for the Examination of Dairy Products (Houghtby et al., 1992). The 3M Petri film count plate (3M Microbiology Products, St. Paul, Minn.) was used to enumerate total coli forms and Escherichia coli in the raw, treated and control milk samples.

coliforms = test: Total coliforms (Petrifilm) in raw milk under CO2 pressure (Example 1); type: cell-based; conditions: 689 kPa CO2 pressure, 4° C.
Procedure: as §1, §2, §3

Escherichia coli = test: E. coli count (Petrifilm) in raw milk under CO2 pressure (Example 1); type: cell-based; conditions: 4° C.
Procedure: as §1, §2, §3

[1] = tested on: gram-negative lactose fermenting bacteria; test: Gram-negative lactose fermenting bacteria on MacConkey agar, raw milk under CO2 pressure (Example 1); type: cell-based; conditions: 6.1° C., 4 days
Procedure: (§4) Raw milk from the T&R Center was monitored for changes in aerobic bacteria, gram-negative bacteria and total Lactobacillus spp. as follows: CO2 pressures of 0 (control), 68, 172, 344, 516 and 689 kPa, at 6.1° C. for 4-days. SPC, gram-negative bacteria and total Lactobacillus spp. were enumerated before (day 0) and after (day 4) treatment. Gram negative bacteria were enumerated on MacConkey Agar (Difco Manual, Becton Dickinson & Co., Sparks, Md.), a selective and differential media which can be used to discriminate between lactose fermenting and non-lactose fermenting gram-negative bacteria. Use of this media allows a one-step method of obtaining estimates of both coliform and non-coliform gram negative bacteria. Coliform bacteria may include species of Escherichia, Klebsiella and Enterobacter, potential pathogens and/or spoilage organisms. Non-coliform gram negative bacteria may include spoilage organisms such as pseudomonads or potential pathogens such as Salmonella spp. or Shigella spp. […]
(§5) For all microbiological assays, milk sample aliquots of 1 ml were used in dilution series. […] Representative and distinctive suspect colonies were gram stained, and confirmed gram positive bacilli colonies were counted as an estimate of total Lactobacillus spp.

[2] = tested on: gram-negative non-lactose fermenting bacteria; test: Gram-negative non-lactose fermenting bacteria on MacConkey agar, raw milk under CO2 pressure (Example 1); type: cell-based; conditions: 6.1° C., 4 days
Procedure: as §4, §5

Lactobacillus spp. [3] = test: Total Lactobacillus spp. on acidified MRS agar, raw milk under CO2 pressure (Example 1); type: cell-based; conditions: current study
Procedure: as §4, §5

[4] = tested on: SPC (total microbial growth) in whole raw milk; test: SPC of bulk raw milk in CO2 pressurized tank container (Example 2); type: cell-based; conditions: bottom of the tank, entire 17 day study
From the text: The apparatus pressurizing and holding raw milk samples consisted of a 5300 U.S. gallon (20,000 liter) food grade, insulated, pressure vessel shipping container of the model HO4 type utilized by Agmark Foods, Inc. Compressed and filtered CO2 from high pressure tank was used, including a Praxair inline 3A sparger. The Agmark shipping container was sanitized on Aug. 4, 2004. The following day, the tank was pre-chilled with a spray of CO2 and filled with 3,291 U.S. gallons of fresh raw milk obtained from the Cornell University Teaching and Research Center Bovine Heard (T&R Center; Dryden, N.Y.) on Aug. 5, 2004. The raw milk from the T&R Center was received less than 12 hours after milking and was introduced from a holding tank into the pressure vessel at a temperature of approximately 1 to 2° C. Prior to filling the pressure vessel, the vessel was sealed and pressurized with carbon dioxide to a pressure of 25 psi (172.5 kPa). Milk was pumped into the tank through the discharge valve at the rear of the tank and CO2 was injected into the flow of the milk with an inline Praxair 3A sparger at a rate sufficient to infuse approximately 2000 parts per million at a gas flow rate of approximately 16 cubic feet per minute. The raw milk was pumped into the vessel at a flow rate of 70 to 80 gallons per minute with flowing CO2 under a 40 psi line pressure and 25 psi tank pressure. […]

[5] = tested on: milk microbiota (SPC, aerobic microorganisms); conditions: cited from earlier work; for extension in storage life: 30 ppm CO2 (King and Mabbitt, 1982)
Lactobacillus plantarum = conditions: CO2 pressures of 13 MPa, 30° C., 30 minutes (Hong and Pyun, 1999); cited from earlier work
Lactobacillus spp. [6] = conditions: 30 and 45 ppm CO2 (Espie and Madden, 1997); cited from earlier work
[7] = 689 kPa CO2 pressure, 4 days, raw milk
[8] = 689 kPa CO2 pressure, 6 days, raw milk
[9] = 689 kPa CO2 pressure, 8 days, raw milk
[10] = 689 kPa CO2 pressure, 9 days, raw milk

O=C=O [CO2, carbon dioxide]
Thermoduric Bacteria counts, Treated, 4 Days (thermoduric bacteria; [7]): 1.0 * 10^0 cfu/ml
Thermoduric Bacteria counts, Treated, 6 Days (thermoduric bacteria; [8]): 9.0 * 10^0m cfu/ml
Thermoduric Bacteria counts, Treated, 8 Days (thermoduric bacteria; [9]): 2.1 * 10^1n cfu/ml
Thermoduric Bacteria counts, Treated, 9 Days (thermoduric bacteria; [10]): 3.7 * 10^1o cfu/ml
total thermoduric bacteria counts in treated milk (thermoduric bacteria; 689 kPa, up to 9 days): Neither E. coli nor total thermoduric bacteria counts increased
Coliforms counts, Treated, 4 Days (coliforms; 4 days): 1.0 * 10^2h cfu/ml
Coliforms counts, Treated, 6 Days (coliforms; 6 days): 1.0 * 10^2h cfu/ml
Coliforms counts, Treated, 8 Days (coliforms; 8 days): 9.3 * 10^1h cfu/ml
Coliforms counts, Treated, 9 Days (coliforms; 9 days): 9.0 * 10^1h cfu/ml
E.coli counts, Treated, 4 Days (Escherichia coli; [7]): 1.7 * 10^1k cfu/ml
E.coli counts, Treated, 6 Days (Escherichia coli; [8]): 1.7 * 10^1k cfu/ml
E.coli counts, Treated, 8 Days (Escherichia coli; [9]): 1.7 * 10^1k cfu/ml
E.coli counts, Treated, 9 Days (Escherichia coli; [10]): 1.5 * 10^1k cfu/ml
E. coli counts in treated milk (Escherichia coli; 689 kPa, up to 9 days): Neither E. coli nor total thermoduric bacteria counts increased
levels of gram-negative fermenters compared to untreated controls ([1]; 68 to 689 kPa): reduced at all pressures
decrease of gram-negative lactose fermenting bacteria compared to initial counts ([1]; 689 kPa): 0.80 log10 cfu/ml
levels of gram-negative non-fermenters compared to untreated controls ([2]; 68 to 689 kPa): reduced at all pressures
decrease of gram-negative non-lactose fermenting bacteria compared to initial counts ([2]; 689 kPa): 0.64 log10 cfu/ml
populations of Lactobacillus after CO2 pressure treatment (Lactobacillus spp. [3]): decreased
bacterial levels versus quality limit of 5 log cfu/ml SPC [4]: did not reach the limit
SPC lower compared to control milk ([5]; 20-30 pmm dissolved CO2, 4 days at 7° C. (Mabbitt, 1982)): 3 log10 cfu/ml
decrease in bulk raw milk microbiota ([5]; 3997 kPa (or 5800 psi) CO2, ≧40° C., 30 min (Calvo and Bacones, 2001)): 2 log10 cfu/ml
reduction in aerobic microorganisms in whole milk ([5]; 6044 kPa CO2, 45° C., 24 h (Erkman, 2000)): 6 log10 cfu/ml
reduction ([5]; 14598 kPa CO2, 25° C., 5-h (Erkman, 1997)): 8 log10 cfu/ml
reduction of bacterial growth in raw milk ([5]; addition of CO2, storage at 6.7° C. for 48 h (Shipe et al., 1978)): 50%
extension in storage life ([5]; good quality milk (10^3 cfu/ml)): 3 days
extension in storage life ([5]; poor quality milk (10^5 cfu/ml)): 1.2 days
reductions in populations of Lactobacillus plantarum (Lactobacillus plantarum): more than 6 logs
effect on the growth of Lactobacillus spp. (Lactobacillus spp. [6]): no effect
